Experimental findings from US6399824B1, “Substituted cinnamic, acid guanidides, process for their preparation, their use as a medicament, and medicament comprising them” (Aventis Pharma Deutschland GmbH, priority 2000, dated 2002) are described below.

Counter-ions that a name gives are not always drawn.

A word on the IC50: it is the concentration that inhibits the measured activity by half. High values mean weaker potency, low ones greater potency. The term solubility denotes the dissolved amount per volume that the medium holds. Higher therefore signals much dissolved substance.

One data set has as its target T1, rNHE3 (Rattus norvegicus, UniProt P26433).
T1 construct: expressed in transfected cells
The data set is described as follows: Recovery of intracellular pH (pHi) after acidification, BCECF fluorescence, NHE inhibition. In kind it is cell-based. The conditions noted are these: pH recovery recorded 3 minutes for NHE3; bicarbonate-free conditions. On the procedure:
In this test, the recovery of the intracellular pH (pHi) which commences with functional NHE after acidification even under bicarbonate-free conditions. For this, the pHi was determined using the pH-sensitive fluorescent dye BCECF (Calbiochem, the precursor BCECF-AM is employed). The cells were first loaded with BCECF. The BCECF fluorescence was determined in a ratio fluorescence spectrometer (Photon Technology International, South Brunswick, N.J., USA) at excitation wavelengths of 505 and 440 nm and an emission wavelength of 535 nm and converted into the pHi by means of calibration curves. During BCECF loading, the cells were already incubated in NH4Cl buffer (pH 7.4) (NH4Cl buffer: 115 mM NaCl, 20 mM NH4Cl, 5 mM KCl, 1 mM CaCl2, 1 mM MgSO4, 20 mM Hepes, 5 mM glucose, 1 mg/ml of BSA; a pH of 7.4 is set using 1 M NaOH). The intracellular acidification was induced by addition of 975 μl of an NH4Cl-free buffer (see below) to 25 μl aliquots of the cells incubated in NH4Cl buffer. The subsequent rate of the pH recovery was recorded for 2 minutes in the case of NHE1, for 5 minutes in the case of NHE2 and 3 minutes in the case of NHE3. For the calculation of the inhibitory potency of the tested substances, the cells were first investigated in buffers in which a complete recovery or no pH recovery at all took place. For complete pH recovery (100%), the cells were incubated in Na^+-containing buffer (133.8 mM NaCl, 4.7 mM KCl, 1.25 mM CaCl2, 1.25 mM MgCl2, 0.97 mM Na2HPO4, 0.23 mM NaH2PO4, 5 mM Hepes, 5 mM glucose, a pH of 7.0 is set using 1 M NaOH). For the determination of the 0% value, the cells were incubated in an Na^+-free buffer (133.8 mM choline chloride, 4.7 mM KCl, 1.25 mM CaCl2, 1.25 mM MgCl2, 0.97 mM K2HPO4, 0.23 mM KH2PO4, 5 mM Hepes, 5 mM glucose, a pH of 7.0 is set using 1 M NaOH). The substances to be tested were applied in the Na^+-containing buffer. The recovery of the intracellular pH at any tested concentration of a substance was expressed as a percentage of the maximum recovery. By means of the program Sigma Plot, the IC50 value of the respective substance for the individual NHE subtypes was calculated from the percentage values of the pH recovery.

Data set [1] in a line: Solubility by UV spectroscopy in 0.9% strength NaCl solution. In kind it is physicochemical. The conditions noted are these: 0.9% NaCl solution, saline or isotonic. On the procedure:
The solubilities indicated below are determined by UV spectroscopy in a 0.9% strength NaCl solution.

T1 sequence (P26433 29-831): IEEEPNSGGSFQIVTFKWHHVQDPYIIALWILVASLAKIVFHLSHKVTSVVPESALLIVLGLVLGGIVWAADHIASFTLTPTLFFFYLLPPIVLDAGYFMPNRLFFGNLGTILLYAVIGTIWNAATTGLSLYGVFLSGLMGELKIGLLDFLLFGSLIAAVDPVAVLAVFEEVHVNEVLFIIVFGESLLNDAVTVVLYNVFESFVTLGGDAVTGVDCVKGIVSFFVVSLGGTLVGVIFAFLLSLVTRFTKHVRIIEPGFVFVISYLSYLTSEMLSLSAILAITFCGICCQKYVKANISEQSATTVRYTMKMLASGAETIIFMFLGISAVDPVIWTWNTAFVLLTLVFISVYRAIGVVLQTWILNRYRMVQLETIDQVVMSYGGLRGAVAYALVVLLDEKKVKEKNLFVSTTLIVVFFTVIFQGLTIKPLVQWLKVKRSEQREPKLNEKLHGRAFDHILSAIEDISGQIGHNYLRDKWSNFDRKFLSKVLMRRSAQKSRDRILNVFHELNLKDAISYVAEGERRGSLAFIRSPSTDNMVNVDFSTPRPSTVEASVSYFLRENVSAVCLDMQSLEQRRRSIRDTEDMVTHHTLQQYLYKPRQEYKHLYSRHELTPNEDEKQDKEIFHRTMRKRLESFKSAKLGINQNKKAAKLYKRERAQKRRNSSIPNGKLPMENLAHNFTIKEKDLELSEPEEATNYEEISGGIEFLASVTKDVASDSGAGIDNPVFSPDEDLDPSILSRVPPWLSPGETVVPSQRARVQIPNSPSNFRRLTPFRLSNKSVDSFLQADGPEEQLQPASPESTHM

With `C/C(=C\c1cc(F)c(Oc2ccc(S(=O)(=O)N3CCN(C)CC3)cc2)c(F)c1)C(=O)N=C(N)N` [Example 7, N-(3-{3,5-Difluoro-4-[4-(4-methylpiperazin-1-sulfonyl)phenoxy]phenyl}-2-methyl-acryloyl)guanidine; trifluoroacetate], the IC50 at rNHE3 stood at 2.6 µM. In data set [1], the solubility is over 2190 µg/mL.
In turn, `C/C(=C\c1ccc(Nc2cccc(S(N)(=O)=O)c2)cc1)C(=O)N=C(N)N` [Example 5, 3-[4-(3-Guanidino-2-methyl-3-oxopropenyl)phenylamino]benzenesulfonamide, trifluoroacetate] showed an IC50 against rNHE3 of 1.2 µM.
Turning to `C/C(=C\c1cc(F)c(Oc2ccc(S(=O)(=O)NCCN(C)C)cc2)c(F)c1)C(=O)N=C(N)N.Cl.Cl` [Example 6, 4-[2 ,6-Difluoro-4-(3-guanidino-2-methyl-3-oxopropenyl)phenoxy]-N-(2-dimethylaminoethyl)benzenesulfonamide, HCl salt], the IC50 on rNHE3 was 0.06 µM. In data set [1], this compound came in with a solubility of 1860 µg/mL.
As to `C/C(=C\c1ccc(Nc2ccc(S(=O)(=O)NCCN(C)C)cc2)cc1)C(=O)N=C(N)N.Cl.Cl` [Example 10, N-(2-Dimethylaminoethyl)-4-[4-(3-guanidino-2-methyl-3-oxopropenyl)phenylamino]-benzenesulfonamide; HCl salt], the concentration for half-maximal inhibition (IC50) on rNHE3 stood at 1.1 µM. Moreover, the solubility in data set [1] came out at 1280 µg/mL.
The compound `C/C(=C\c1ccc(Oc2ccc(S(N)(=O)=O)cc2)cc1)C(=O)N=C(N)N` [Example 3, 4-[4-(3-Guanidino-2-methyl-3-oxopropenyl)phenoxy]benzenesulfonamide; HCl salt] displayed an IC50 against rNHE3 of 0.13 µM.
On to `C/C(=C\c1ccc(Nc2ccc(S(=O)(=O)N3CCN(C)CC3)cc2)cc1)C(=O)N=C(N)N.Cl.Cl` [Example 12, N-(2-Methyl-3-{4-[4-(4-methylpiperazine-1-sulfonyl)phenylamino]phenyl}acryloyl)-guanidine; HCl salt], for which half-maximal inhibition at rNHE3 (IC50) was put at 2.6 µM. In data set [1], the solubility is 1760 µg/mL.
`CNC(=O)NS(=O)(=O)c1ccc(Oc2c(F)cc(/C=C(\C)C(=O)N=C(N)N)cc2F)cc1` [Example 8, 4-[2 ,6-Difluoro-4-(3-guanidino-2-methyl-3-oxopropenyl)phenoxy]benzenesulfone N-(carboxy-N′-methylamid)amide; HCl salt] registered an IC50 against rNHE3 of 0.09 µM.
Same read-out and setting: to `C/C(=C\c1ccc(Nc2ccc(S(N)(=O)=O)cc2)cc1)C(=O)N=C(N)N` [Example 4, 4-[4-(3-Guanidino-2-methyl-3-oxopropenyl)phenylamino]benzenesulfonamide; trifluoroacetate] belongs 0.62 µM; to `C/C(=C\c1cc(F)c(Oc2ccc(S(N)(=O)=O)cc2)c(F)c1)C(=O)N=C(N)N` [Example 1, 4-[2,6-Difluoro-4-(3-guanidino-2-methyl-3-oxopropenyl)phenoxy]benzenesulfonamide; HCl salt], 0.07 µM.
In turn, `C/C(=C\c1cc(F)c(Oc2ccc(S(N)(=O)=O)cc2)c(F)c1)C(=O)N=C(N)N` [Example 2, 4-[2,6-Difluoro-4-(3-guanidino-2-methyl-3-oxopropenyl)phenoxy]benzenesulfonamide; methanesulfonate] registered an IC50 at rNHE3 of 0.02 µM.
The compound `CNS(=O)(=O)c1ccc(Nc2ccc(/C=C(\C)C(=O)N=C(N)N)cc2)cc1` [Example 14, 4-[4-(3-Guanidino-2-methyl-3-oxopropenyl)phenylamino]-N-methylbenzenesulfonamide; HCl salt] displayed an IC50 against rNHE3 of 0.85 µM.
Regarding `CCNC(=O)NS(=O)(=O)c1ccc(Oc2c(F)cc(/C=C(\C)C(=O)N=C(N)N)cc2F)cc1` [Example 9, 4-[2,6-Difluoro-4-(3-guanidino-2-methyl-3-oxopropenyl)phenoxy]benzenesulfone N-(carboxy-N′-ethylamid)amide; HCl salt], at rNHE3, the IC50 came to 0.07 µM.
Consider `C/C(=C\c1ccc(Nc2ccc(S(=O)(=O)N(C)C3CCN(C)C3)cc2)cc1)C(=O)N=C(N)N.Cl.Cl` (centres unmarked) [Example 13, 4-[4-(3-Guanidino-2-methyl-3-oxopropenyl)phenylamino]-N-methyl-N-(1-methyl-pyrrolidin-3-yl)benzenesulfonamide, HCl salt], for which it took 0.59 µM to reach half-maximal inhibition against rNHE3 (IC50). The same compound gave a solubility in data set [1] of 3080 µg/mL.
For `C/C(=C\c1ccc(Nc2ccc(S(=O)(=O)NCCN3CCCC3)cc2)cc1)C(=O)N=C(N)N.Cl.Cl` [Example 11, 4-[4-(3-Guanidino-2-methyl-3-oxopropenyl)phenylamino]-N-(2-pyrrolidin-1-ylethyl)-benzenesulfonamide; HCl salt] the same measures were 0.85 µM and 1520 µg/mL.
